Data from patent publication US20040101888A1, “Vector system used in screening active substances” (Max-Delbruck-Centrum Fur Molekulare Medizin, priority 2001, published 2004).

Test system: TCRS containing NIH-3T3 fibroblasts cells
Assay: Detection of cellular translational control activities by TCRS reporter in drug-treated cells
Type: cell-based
Settings: TCRS containing NIH-3T3 fibroblasts treated with drug
Text: TCRS functions in cell lines. To examine the applicability of the TCRS in vertebrate cells we introduced the improved TCRS-vector into fibroblasts by transient transfection. […] Importantly, removal of the regulatory uORF by […] point mutation of its translation initiation site results in loss of translational controlled SR protein expression. Accordingly, the TCRS can be used to screen for drugs or to monitor pharmacological effects in tissue culture.
To examine the potential of the TCRS for detection of changes in translation control activities by external supplied drugs, we treated the TCRS containing NIH-3T3 fibroblasts cells with aminopurine and rapamycin, respectively.
Treatment with translational active drugs, such as rapamycin or aminopurine, result in differential activation of distinct translation control pathways, causing a shift in reporter protein expression. Shift in reporter expression was also observed with co-transfected expression vectors encoding eucaryotic translation initiation factors eIF2or eIF4E, or mutants thereof. Reporter protein expression shifts were dependent on an intact uORF.

With aminopurine the “changes of the reporter peptide levels (PR and SR reporter protein expression from TCRS)” value was “Differential changes of the peptide levels were observed”.
